≈ marks a conversion by molar mass, not a printed value. Where “and” joins values, the source holds several entries; their conditions need not be identical. Identical values can stand only once. Like-named read-outs stand apart in the source and are kept apart here.
Columns and labels:
M. tuberculosis H37Rv [1] = assay: microbe, parasite or virus in culture; type: cell-based, Mycobacterium tuberculosis; conditions: for MIC90 / IC90 / MIC: Mycobacterium tuberculosis, H37RV; for MIC90: read-out: MIC (MIC90); for IC90: read-out: TB-IC90_OD GEOM_MEAN
[2] = for CL mouse MEAN / in vitro mouse Clint: microsomes
[3] = test system: Madin Darby Canine Kidney (MDCK); conditions: for P-glycoprotein (P-gp) efflux (in words) / permeability (in words): MDCK-MDR1; for P-gp Efflux B→ A/A → B: dog, MDCK
Vero cells [4] = assay: cells; conditions: Chlorocebus sabaeus, read-out: VERO IC50
Protocol: (§1) Compounds were solubilized in DMSO and assayed as a 10-point 3-fold serial dilution. Compounds were incubated with cells for 2 days at 37 °C, 5% CO2. CellTiter-Glo Reagent (Promega) was added and relative luminescent units (RLU) measured.

physchem [5] = assay: physchem
in vitro = conditions: dog, MDCK-MDR1
physchem [6] = assay: physchem; remark: listed apart in the source
Protocol: Samples are stirred for 20 h and filtered through a 0.7 μm GF filter. The filtrate was analyzed by HPLC assay for concentration against DMSO standard curve.[40]

physchem [7] = assay: physchem; remark: listed apart in the source
Vero cells [8] = conditions: read-out: VERO IC50
Protocol: as §1

physchem [9] = conditions: aqueous with cosolvent or surfactant or cyclodextrin, kinetic from dmso stock
in vivo = conditions: female, C57 Black, mouse
Protocol: (§2) Test compound was dosed as a bolus solution intravenously at 3 mg of free base/kilogram (dose volume 5 mL/kg; dose vehicle Saline or 10% DMSO; 40% PEG400; 50% saline) to female C57 Black (n = 3) or dosed orally by gavage as a solution at 10 mg of free base/kilogram (dose volume 10 mL/kg; dose vehicle 10% DMSO; 40% PEG400; 50% distilled water) to female C57 Black (n = 3/dose level). Blood samples were taken from each mouse tail vein at predetermined time points postdose, mixed with two volumes of distilled water, and stored frozen until UPLC/MS/MS analysis. Pharmacokinetic parameters were derived from the blood concentration time curve using PK Solutions software v 2.0 (Summit Research Services, USA).

[10] = female, C57 Black, mouse, in vivo, iv, 3 mg/kg
Protocol: as §2

M. tuberculosis H37Rv [11] = test system: M. tuberculosis H37Rv; parameters: species or system Mycobacterium tuberculosis; conditions: in vivo

Compound | MIC90 (M. tuberculosis H37Rv [1]) [µM] | IC90 (M. tuberculosis H37Rv [1]) [µM] | Cli mouse ([2]; female, CD1, mouse, pH 7.4) [mL.min^–1.g^–1] | CL mouse MEAN ([2]; mouse) [mL/min/g] | IC50 (Vero cells [4]) [µM] | chromatographic logD (physchem [5]) | solubility kinetic (physchem [9]) [µM] | further results
NC(=O)c1sc(CN2CCOCC2)cc1OCCc1ccccc1 [Compound 18, 5-(Morpholinomethyl)-3-(2-phenylethoxy)thiophene-2-carboxamide] | > 20 | > 20 | 3 | 3.219 | > 100 | 1.71 | – | antitubercular whole cell activity (in words) (M. tuberculosis H37Rv [1]): not active; P-glycoprotein (P-gp) efflux (in words) [3]: no likely P-glycoprotein (P-gp) efflux issues; permeability (in words) [3]: good permeability; P-gp Efflux B→ A/A → B [3]: 0.8; Papp A→B (in vitro): 62 ×10⁻⁶ cm/s; Papp B→A (in vitro): 53 ×10⁻⁶ cm/s; solubility (physchem [6]; pH 2): 700 µg/mL (≈ 2020 µM); solubility (physchem [6]; pH 7.4): 300 µg/mL (≈ 866 µM); solubility (physchem [7]; pH 2.4): 1700 µg/mL (≈ 4910 µM)
c1ccc(CCOc2csc(N3CCOCC3)c2)cc1 [Compound 19, 4-[4-(2-Phenylethoxy)-2-thienyl]morpholine] | > 20 | > 20 | 37 | 37.17 | 68 | 1.96 | 174 (≈ 50.2 µg/mL) | IC50 (Vero cells [8]): 61.7 µM
CC(=O)c1sc(N2CCOCC2)cc1OCCc1ccccc1 [Compound 20, 1-[5-Morpholino-3-(2-phenylethoxy)-2-thienyl]ethanone] | 0.42 (≈ 0.139 µg/mL) | 0.424 | 41 | 41.42 | 84 | 2.78 | – | IC50 (Vero cells [8]): 82.2 µM; solubility (physchem [6]; pH 2): 600 µg/mL (≈ 1810 µM); solubility (physchem [6]; pH 7.4): 30 µg/mL (≈ 90.5 µM); solubility (physchem [7]; pH 2.4): 400 µg/mL (≈ 1210 µM)
CNC(=O)c1sc(N2CCOCC2)cc1OCCc1ccccc1 [Compound 21, N-Methyl-5-morpholino-3-(2-phenylethoxy)thiophene-2-carboxamide] | 0.12 (≈ 0.0416 µg/mL) | 0.133 | 36 | 35.49 | 91 | 2.44 | – | MIC (M. tuberculosis H37Rv [1]; read-out: MIC WT): 0.08 µM; IC50 (Vero cells [8]): 72.4 µM
O=C(NCC(F)(F)F)c1sc(N2CCOCC2)cc1OCCc1ccccc1 [Compound 23, 5-Morpholino-3-phenethoxy-N-(2,2,2-trifluoroethyl)thiophene-2-carboxamide] | 3.4 (≈ 1.41 µg/mL) | 3.32 | 30 | 30.19 | > 100 | 3.11 | 67 (≈ 27.8 µg/mL) | –
O=C(NC1CCC1)c1sc(N2CCOCC2)cc1OCCc1ccccc1 [Compound 24, N-Cyclobutyl-5-morpholino-3-phenethoxythiophene-2-carboxamide] | > 20 | > 20 | 0.5 | 0.5 | 24 | 3.21 | 175 (≈ 67.6 µg/mL) | IC50 (Vero cells [8]): 24 µM
CON(C)C(=O)c1sc(N2CCOCC2)cc1OCCc1ccccc1 [Compound 25, N-Methoxy-N-methyl-5-morpholino-3-phenethoxythiophene-2-carboxamide] | 1.8 (≈ 0.678 µg/mL) | 1.7 | 0.5 | 0.5 | – | – | – | MIC (M. tuberculosis H37Rv [1]; read-out: H37Rv MIC): 0.64 µg/mL; in vitro mouse Clint ([2]; mouse): <0.5 mL/min/g; AUC (in vivo; po, 10 mg/kg): 86.7 ng·h/mL
CCOC(=O)NC(=O)c1sc(N2CCOCC2)cc1OCCc1ccccc1 [Compound 26, Ethyl N-[5-Morpholino-3-(2-phenylethoxy)thiophene-2-carbonyl]carbamate] | > 20 | > 20 | 1 | 0.9584 | > 100 | 2.73 | 65.8 (≈ 26.6 µg/mL) | antitubercular whole cell activity (in words) (M. tuberculosis H37Rv [1]): inactive
NC(=O)c1sc(N2CCCCC2)cc1OCCc1ccccc1 [Compound 28, 3-(2-Phenylethoxy)-5-(1-piperidyl)thiophene-2-carboxamide] | 8.9 (≈ 2.94 µg/mL) | 11 | 42 | 42.23 | > 100 | 3.04 | 78.5 (≈ 25.9 µg/mL) | –
NC(=O)c1sc(N2CCOCC2=O)cc1OCCc1ccccc1 [Compound 29, 5-(3-Oxomorpholino)-3-phenethoxythiophene-2-carboxamide] | 15 (≈ 5.2 µg/mL) | 10 | 7 | 6.629 | > 100 | – | 79 (≈ 27.4 µg/mL) | drop in potency / activity (M. tuberculosis H37Rv [1]): > 10 fold
NC(=O)c1sc(-n2cnc3ccccc32)cc1OCCc1ccccc1 [Compound 33, 5-(Benzimidazol-1-yl)-3-(2-phenylethoxy)thiophene-2-carboxamide] | > 20 | > 20 | 28 | 28.23 | > 100 | 2.39 | 27.5 (≈ 9.99 µg/mL) | antitubercular whole cell activity (in words) (M. tuberculosis H37Rv [1]): inactive
NC(=O)c1sc(-n2nccn2)cc1OCCc1ccccc1 [Compound 34, 3-(2-Phenylethoxy)-5-(triazol-2-yl)thiophene-2-carboxamide] | 2 (≈ 0.629 µg/mL) | 2.05 | 30 | 30.46 | > 100 | 2.41 | 78.5 (≈ 24.7 µg/mL) | –
NC(=O)c1sc(-c2ccncc2)cc1OCCc1ccccc1 [Compound 35, 3-(2-Phenylethoxy)-5-(4-pyridyl)thiophene-2-carboxamide] | 5.3 (≈ 1.72 µg/mL) | 5.08 | 41 | 40.84 | 5.9 | 1.9 | 219 (≈ 71 µg/mL) | MIC (M. tuberculosis H37Rv [1]; read-out: MIC WT): 5.8 µM; IC50 (Vero cells [8]): 5.62 µM
NC(=O)c1sc(N2CCOCC2)cc1OCCc1ccccc1F [Compound 38] | 3.4 (≈ 1.19 µg/mL) | 3.7 | 25 | – | 84 | 2.05 | – | IC50 (Vero cells [8]): 83.2 µM; CL mouse MEAN ([2]; female, CD1, mouse, pH 7.4): 25.22 mL/min/g
NC(=O)c1sc(N2CCOCC2)cc1OCCc1cccc(F)c1 [Compound 39, 3-[2-(3-Fluorophenyl)ethoxy]-5-morpholinothiophene-2-carboxamide] | 0.43 (≈ 0.151 µg/mL) | 0.469 | 18 | 17.63 | > 100 | 2.05 | 219 (≈ 76.7 µg/mL) | MIC (M. tuberculosis H37Rv [1]; read-out: MIC WT): 0.53 µM
CC1(COc2cc(N3CCOCC3)sc2C(N)=O)COC1 [Compound 46, 3-((3-Methyloxetan-3-yl)methoxy)-5-morpholinothiophene-2-carboxamide] | > 20 | – | 2.1 | 2.051 | > 100 | 0.707 | – | antitubercular whole cell activity (in words) (M. tuberculosis H37Rv [1]): no measurable MIC activity; MIC (M. tuberculosis H37Rv [1]; read-out: H37Rv MIC): > 6.2 µg/mL; scaled Clpre ([2]; female, CD1, mouse, pH 7.4): 56 mL/min/kg; in vitro mouse Clint ([2]; mouse): 2.1 mL/min/g; CLB [10]: 31 mL/min/kg; T1/2 [10]: 42 min; P-glycoprotein (P-gp) efflux (in words) [3]: no likely P-glycoprotein (P-gp) efflux issues; permeability (in words) [3]: good permeability; P-gp Efflux B→ A/A → B [3]: 2; bioavailability (in vivo; po, 10 mg/kg): 38%; Papp A→B (in vitro): 19 ×10⁻⁶ cm/s; Papp B→A (in vitro): 35 ×10⁻⁶ cm/s
NC(=O)c1cc(N2CCOCC2)ccc1OCCc1ccccc1 [Compound 55, 5-Morpholino-2-(2-phenylethoxy)benzamide] | 5.7 (≈ 1.86 µg/mL) | – | 3.8 | 3.79 | > 100 | 1.9 | – | MIC (M. tuberculosis H37Rv [1]; read-out: H37Rv MIC): 1.9 µg/mL; scaled Clpre ([2]; female, CD1, mouse, pH 7.4): 68 mL/min/kg; in vitro mouse Clint ([2]; mouse): 4 mL/min/g; CLB [10]: 32 mL/min/kg; T1/2 [10]: 72 min; AUC (in vivo; iv, 3 mg/kg): 1590 ng·h/mL; bioavailability (in vivo; po, 10 mg/kg): 5%; solubility (physchem [6]; pH 2): 600 µg/mL (≈ 1840 µM); solubility (physchem [6]; pH 6): 300 µg/mL (≈ 919 µM); solubility (physchem [6]; pH 7.4): 300 µg/mL (≈ 919 µM); solubility (physchem [7]; pH 2.4): 1300 µg/mL (≈ 3980 µM); solubility (physchem [7]; pH 6): 300 µg/mL (≈ 919 µM)
NC(=O)c1cc(N2CCOCC2)ccc1OCCc1cccc(F)c1 [Compound 56, 2-[2-(3-Fluorophenyl)ethoxy]-5-morpholino-benzamide] | 2.8 (≈ 0.964 µg/mL) | – | 6.4 | 6.406 | > 100 | – | – | P-glycoprotein (P-gp) efflux (in words) [3]: no likely P-glycoprotein (P-gp) efflux issues; permeability (in words) [3]: good permeability; P-gp Efflux B→ A/A → B [3]: 0.7; Papp A→B (in vitro): 51 ×10⁻⁶ cm/s; Papp B→A (in vitro): 37 ×10⁻⁶ cm/s
COCCc1ccc(OCC(O)CNC(C)C)cc1 (centres unmarked) [Metoprolol, reference compound] | – | – | – | – | – | – | – | Papp A→B (in vitro): 55 ×10⁻⁶ cm/s; Papp B→A (in vitro): 40 ×10⁻⁶ cm/s
COc1c(N2C[C@@H]3CCCN[C@@H]3C2)c(F)cc2c(=O)c(C(=O)O)cn(C3CC3)c12 [Moxifloxacin] | – | – | – | – | – | – | – | log CFUs per mouse (lungs), individual mice (M. tuberculosis H37Rv [11]): 3.8 log CFU (2×) and 4.4 log CFU and 4.0 log CFU and 3.9 log CFU; log CFUs per mouse (lungs), mean (M. tuberculosis H37Rv [11]): 4.0 log CFU; reduction of CFU lung number with respect to untreated mice (M. tuberculosis H37Rv [11]): 2.8 logs
C=C[C@H]1C[N@@]2CC[C@H]1C[C@@H]2[C@@H](O)c1ccnc2ccc(OC)cc12 [Quinidine, reference compound] | – | – | – | – | – | – | – | Papp B→A (in vitro): 89 ×10⁻⁶ cm/s

— PMC6089501 (Journal of Medicinal Chemistry, 2018)
